Among the data in patent US20250304576A1 (Cancer Research Technology Limited, priority 2022, published 2025) are Ki values, retold here.

For test [1], the target named is T1, Recombinant IKKβ (Homo sapiens, UniProt O14920).
T1 construct: purchased Millipore, Dundee, UK
T1 sequence (O14920 1-756): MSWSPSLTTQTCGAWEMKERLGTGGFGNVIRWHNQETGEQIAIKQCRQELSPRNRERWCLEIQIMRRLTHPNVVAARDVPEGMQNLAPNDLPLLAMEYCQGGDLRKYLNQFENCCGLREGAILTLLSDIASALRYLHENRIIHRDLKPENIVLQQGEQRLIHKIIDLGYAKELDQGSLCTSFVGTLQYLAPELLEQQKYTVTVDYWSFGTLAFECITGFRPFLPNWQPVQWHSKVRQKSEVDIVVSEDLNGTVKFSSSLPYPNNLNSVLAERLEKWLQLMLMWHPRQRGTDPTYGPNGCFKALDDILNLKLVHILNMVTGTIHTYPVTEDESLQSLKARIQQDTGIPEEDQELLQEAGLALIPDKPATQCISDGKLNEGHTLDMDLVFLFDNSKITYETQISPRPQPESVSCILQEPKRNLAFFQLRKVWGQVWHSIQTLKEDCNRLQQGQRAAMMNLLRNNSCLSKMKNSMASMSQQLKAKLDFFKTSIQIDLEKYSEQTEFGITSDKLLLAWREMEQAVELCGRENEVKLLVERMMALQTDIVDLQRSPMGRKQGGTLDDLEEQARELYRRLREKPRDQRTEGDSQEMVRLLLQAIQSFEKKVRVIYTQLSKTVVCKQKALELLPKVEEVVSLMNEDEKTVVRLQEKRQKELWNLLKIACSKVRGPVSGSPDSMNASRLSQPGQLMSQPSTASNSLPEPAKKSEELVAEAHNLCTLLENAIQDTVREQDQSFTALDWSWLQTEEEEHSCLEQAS
The test is described as follows: DELFIA IKKβ kinase assay (apparent Ki, Cheng-Prusoff). Format: biochemical. Particulars: DELFIA assay (first line of an example). In a few lines:
(§1)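 Recombinant IKKα or IKKβ (37 nM) with 0.375 μM biotinylated IκB-α (Ser32) peptide and 40 μM ATP in 40 mM Tris-HCl pH 7.5, 20 mM MgCl2, 60 min at 30° C. Phospho-substrate captured on streptavidin and detected by anti-phospho-IκB-α plus europium anti-mouse IgG time-resolved fluorescence; apparent Ki via Cheng-Prusoff.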

In test [2] the target is T2, Recombinant IKKα (Homo sapiens, UniProt O15111).
T2 construct: purchased Millipore, Dundee, UK
T2 sequence (O15111 1-745): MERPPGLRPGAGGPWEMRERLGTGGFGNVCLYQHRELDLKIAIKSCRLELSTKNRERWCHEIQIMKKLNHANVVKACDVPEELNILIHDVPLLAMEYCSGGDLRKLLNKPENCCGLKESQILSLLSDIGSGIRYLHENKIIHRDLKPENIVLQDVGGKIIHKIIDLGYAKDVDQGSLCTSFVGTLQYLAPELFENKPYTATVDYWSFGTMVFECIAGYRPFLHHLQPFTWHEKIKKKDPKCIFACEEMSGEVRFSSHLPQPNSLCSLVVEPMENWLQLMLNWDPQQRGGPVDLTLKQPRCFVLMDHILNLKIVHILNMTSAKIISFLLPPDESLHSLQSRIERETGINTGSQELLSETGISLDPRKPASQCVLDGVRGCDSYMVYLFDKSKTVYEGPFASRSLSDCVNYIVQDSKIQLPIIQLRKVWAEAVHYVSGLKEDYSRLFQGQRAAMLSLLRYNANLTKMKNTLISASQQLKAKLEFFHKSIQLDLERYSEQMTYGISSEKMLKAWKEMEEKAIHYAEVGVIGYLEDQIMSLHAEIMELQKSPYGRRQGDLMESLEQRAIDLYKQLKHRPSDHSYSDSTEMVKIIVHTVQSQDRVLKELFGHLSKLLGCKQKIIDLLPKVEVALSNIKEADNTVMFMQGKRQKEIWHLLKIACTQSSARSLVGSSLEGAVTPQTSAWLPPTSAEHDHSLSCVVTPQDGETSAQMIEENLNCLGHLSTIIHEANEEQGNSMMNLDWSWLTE
Nature of the test: DELFIA IKKα kinase assay (apparent Ki, Cheng-Prusoff). Format: biochemical. Particulars: DELFIA assay (first line of an example). The essentials: as §1

Consider `CN(C)CCNC(=O)c1cc2c(-c3ccc4[nH]nc(N)c4c3)ccnc2[nH]1` [Example 242, 4-(3-Amino-1H-indazol-5-yl)-N-(2-(dimethylamino)ethyl)-1H-pyrrolo[2,3-b]pyridine-2-carboxamide], for which the Ki in test [1] was determined as 377 nM; in test [2], 8 nM.
For `Nc1n[nH]c2ccc(-c3ccnc4[nH]c(C(=O)NCCN5CCCCC5)cc34)cc12` [Example 244, 4-(3-Amino-1H-indazol-5-yl)-N-(2-(piperidin-1-yl)ethyl)-1H-pyrrolo[2,3-b]pyridine-2-carboxamide], the Ki in test [1] was 109 nM; in test [2], 8 nM.
The corresponding values for `CCCCN(CC)CCNC(=O)c1cc2c(-c3ccc4[nH]nc(N)c4c3)ccnc2[nH]1` [Example 245, 4-(3-Amino-1H-indazol-5-yl)-N-(2-(butyl(ethyl)amino)ethyl)-1H-pyrrolo[2,3-b]pyridine-2-carboxamide] are 193 nM and 29 nM.
`CC(C)N(CCNC(=O)c1cc2c(-c3ccc4[nH]nc(N)c4c3)ccnc2[nH]1)C(C)C` [Example 246, 4-(3-Amino-1H-indazol-5-yl)-N-(2-(diisopropylamino)ethyl)-1H-pyrrolo[2,3-b]pyridine-2-carboxamide]: the results for the Ki in test [1] and in test [2] were 104 nM and 9 nM, respectively.
For `CN(C)CCCNC(=O)c1cc2c(-c3ccc4[nH]nc(N)c4c3)ccnc2[nH]1` [Example 247, 4-(3-Amino-1H-indazol-5-yl)-N-(3-(dimethylamino)propyl)-1H-pyrrolo[2,3-b]pyridine-2-carboxamide], the Ki in test [1] worked out at 46 nM; in test [2], 8 nM.
The corresponding values for `CC(C)CCNCc1cc2c(-c3ccc4[nH]nc(N)c4c3)ccnc2[nH]1` [Example 249, 5-(2-((Isopentylamino)methyl)-1H-pyrrolo[2,3-b]pyridine-4-yl)-1H-indazol-3-amine] are 1470 nM and 56 nM.
In the case of `Nc1n[nH]c2ccc(-c3ccnc4[nH]c(CNc5ccccc5)cc34)cc12` [Example 252, 5-(2-((Phenylamino)methyl)-1H-pyrrolo[2,3-b]340yridine-4-yl)-1H-indazol-3-amine], the Ki came out at 59 nM in test [1] and 6 nM in test [2].
As for `Nc1n[nH]c2ccc(-c3ccnc4[nH]c(CNc5ccccc5COc5ccccc5)cc34)cc12` [Example 253, 5-(2-(((2-(Benzyloxy)phenyl)amino)methyl)-1H-pyrrolo[2,3-b]342yridine-4-yl)-1H-indazol-3-amine], the Ki in test [1] stood at 330 nM; in test [2], 5 nM.
On to `COCCNCc1cc2c(-c3ccc4[nH]nc(N)c4c3)ccnc2[nH]1` [Example 254, 5-(2-(((2-Methoxyethyl)amino)methyl)-1H-pyrrolo[2,3-b]343yridine-4-yl)-1H-indazol-3-amine], for which the results for the Ki in test [1] and in test [2] were 389 nM and 18 nM, respectively.
The corresponding values for `CN(C)CCNCc1cc2c(-c3ccc4[nH]nc(N)c4c3)ccnc2[nH]1` [Example 255, N^1-((4-(3-Amino-1H-indazol-5-yl)-1H-pyrrolo[2,3-b]pyridin-2-yl)methyl)-N2,N2-dimethylethane-1,2-diamine] are 1630 nM and 30 nM.
Take `COCCCNCc1cc2c(-c3ccc4[nH]nc(N)c4c3)ccnc2[nH]1` [Example 256, 5-(2-(((3-methoxypropyl)amino)methyl)-1H-pyrrolo[2,3-b]pyridine-4-yl)-1H-indazol-3-amine]: the Ki in test [1] was 2560 nM; in test [2], 46 nM.
For the compound `CC(C)OCCCNCc1cc2c(-c3ccc4[nH]nc(N)c4c3)ccnc2[nH]1` [Example 257, 5-(2-(((3-Isopropoxypropyl)amino)methyl)-1H-pyrrolo[2,3-b]346yridine-4-yl)-1H-indazol-3-amine], the Ki in test [1] came out at 2220 nM; in test [2], 40 nM.
The corresponding values for `CC(C)(C)N1CCN(Cc2cc3c(-c4ccc5[nH]nc(N)c5c4)ccnc3[nH]2)CC1` [Example 264, 5-(2-((4-(tert-Butyl)piperazin-1-yl)methyl)-1H-pyrrolo[2,3-b]pyridin-4-yl)-1H-indazol-3-amine] are 285 nM and 5 nM.
The corresponding values for `Nc1n[nH]c2ccc(-c3ccnc4[nH]c(CCCNC5CCCCC5)cc34)cc12` [Example 270, 5-(2-(3-(Cyclohexylamino)propyl)-1H-pyrrolo[2,3-b]pyridin-4-yl)-1H-indazol-3-amine] are 65 nM and 4 nM.
The corresponding values for `Nc1n[nH]c2ccc(-c3ccnc4[nH]c(CC5CCN(Cc6ccccc6)CC5)cc34)cc12` [Example 273, 5-(2-((1-benzylpiperidin-4-yl)methyl)-1H-pyrrolo[2,3-b]pyridin-4-yl)-1H-indazol-3-amine] are 200 nM and 5 nM.
For `Nc1n[nH]c2c(Cl)cc(-c3ccnc4[nH]c(C(=O)NCCN5CCCCC5)cc34)cc12` [Example 274, 4-(3-Amino-7-chloro-1H-indazol-5-yl)-N-(2-(piperidin-1-yl)ethyl)-1H-pyrrolo[2,3-b]pyridine-2-carboxamide], the Ki in test [1] amounted to 126 nM; in test [2] it was 8 nM.
The corresponding values for `Nc1n[nH]c2c(Cl)cc(-c3ccnc4[nH]c(CC5CCCCC5)cc34)cc12` [Example 275, 7-Chloro-5-(2-(cyclohexylmethyl)-1H-pyrrolo[2,3-b]pyridin-4-yl)-1H-indazol-3-amine] are 376 nM and 37 nM.
As for `Nc1n[nH]c2c(Cl)cc(-c3ccnc4[nH]c(CN5CCOCC5)cc34)cc12` [Example 276, 7-Chloro-5-(2-(morpholinomethyl)-1H-pyrrolo[2,3-b]pyridin-4-yl)-1H-indazol-3-amine], the Ki is 70 nM in test [1] and 4 nM in test [2].
For the compound `Nc1n[nH]c2c(Cl)cc(-c3ccnc4[nH]c(CCN5CCOCC5)cc34)cc12` [Example 277, 7-Chloro-5-(2-(2-morpholinoethyl)-1H-pyrrolo[2,3-b]pyridin-4-yl)-1H-indazol-3-amine], the Ki in test [1] came out at 51 nM; in test [2], 1 nM.
For `CC(C)(C)C#Cc1cc(-c2ccnc3[nH]c(CC4CCCCC4)cc23)cc2c(N)n[nH]c12` [Example 278, 5-(2-(Cyclohexylmethyl)-1H-pyrrolo[2,3-b]pyridin-4-yl)-7-(3,3-dimethylbut-1-yn-1-yl)-1H-indazol-3-amine] the same measures were more than 10000 nM and 380 nM.
The corresponding values for `CC(C)(C)C#Cc1cc(-c2ccnc3[nH]c(CCN4CCOCC4)cc23)cc2c(N)n[nH]c12` [Example 280, 7-(3,3-Dimethylbut-1-yn-1-yl)-5-(2-(2-morpholinoethyl)-1H-pyrrolo[2,3-b]pyridin-4-yl)-1H-indazol-3-amine] are 360 nM and 30 nM.
For `Nc1n[nH]c2c(C#Cc3ccccc3)cc(-c3ccnc4[nH]c(CCN5CCOCC5)cc34)cc12` [Example 281, 5-(2-(2-Morpholinoethyl)-1H-pyrrolo[2,3-b]pyridin-4-yl)-7-(phenylethynyl)-1H-indazol-3-amine] the same measures were 331 nM and 47 nM.
`CC(C)(C)C#Cc1cc(-c2ccnc(Nc3ncco3)c2)cc2c(N)n[nH]c12` [Example 282, N-(4-(3-Amino-7-(3,3-dimethylbut-1-yn-1-yl)-1H-indazol-5-yl)pyridin-2-yl)oxazol-2-amine]: the Ki in test [1] came out at 594 nM; in test [2] it was 19 nM.
For `CC(C)(C)C#Cc1cc(-c2ccnc(NCCC(F)(F)F)c2)cc2c(N)n[nH]c12` [Example 283, 7-(3,3-Dimethylbut-1-yn-1-yl)-5-(2-((3,3,3-trifluoropropyl)amino)pyridin-4-yl)-1H-indazol-3-amine] the same measures were more than 10000 nM and 215 nM.
